In general, Ki refers to the dissociation constant of the complex between target and ligand, obtained from inhibition or displacement.

T1 sequence (Q5S007 whole entry G2019S): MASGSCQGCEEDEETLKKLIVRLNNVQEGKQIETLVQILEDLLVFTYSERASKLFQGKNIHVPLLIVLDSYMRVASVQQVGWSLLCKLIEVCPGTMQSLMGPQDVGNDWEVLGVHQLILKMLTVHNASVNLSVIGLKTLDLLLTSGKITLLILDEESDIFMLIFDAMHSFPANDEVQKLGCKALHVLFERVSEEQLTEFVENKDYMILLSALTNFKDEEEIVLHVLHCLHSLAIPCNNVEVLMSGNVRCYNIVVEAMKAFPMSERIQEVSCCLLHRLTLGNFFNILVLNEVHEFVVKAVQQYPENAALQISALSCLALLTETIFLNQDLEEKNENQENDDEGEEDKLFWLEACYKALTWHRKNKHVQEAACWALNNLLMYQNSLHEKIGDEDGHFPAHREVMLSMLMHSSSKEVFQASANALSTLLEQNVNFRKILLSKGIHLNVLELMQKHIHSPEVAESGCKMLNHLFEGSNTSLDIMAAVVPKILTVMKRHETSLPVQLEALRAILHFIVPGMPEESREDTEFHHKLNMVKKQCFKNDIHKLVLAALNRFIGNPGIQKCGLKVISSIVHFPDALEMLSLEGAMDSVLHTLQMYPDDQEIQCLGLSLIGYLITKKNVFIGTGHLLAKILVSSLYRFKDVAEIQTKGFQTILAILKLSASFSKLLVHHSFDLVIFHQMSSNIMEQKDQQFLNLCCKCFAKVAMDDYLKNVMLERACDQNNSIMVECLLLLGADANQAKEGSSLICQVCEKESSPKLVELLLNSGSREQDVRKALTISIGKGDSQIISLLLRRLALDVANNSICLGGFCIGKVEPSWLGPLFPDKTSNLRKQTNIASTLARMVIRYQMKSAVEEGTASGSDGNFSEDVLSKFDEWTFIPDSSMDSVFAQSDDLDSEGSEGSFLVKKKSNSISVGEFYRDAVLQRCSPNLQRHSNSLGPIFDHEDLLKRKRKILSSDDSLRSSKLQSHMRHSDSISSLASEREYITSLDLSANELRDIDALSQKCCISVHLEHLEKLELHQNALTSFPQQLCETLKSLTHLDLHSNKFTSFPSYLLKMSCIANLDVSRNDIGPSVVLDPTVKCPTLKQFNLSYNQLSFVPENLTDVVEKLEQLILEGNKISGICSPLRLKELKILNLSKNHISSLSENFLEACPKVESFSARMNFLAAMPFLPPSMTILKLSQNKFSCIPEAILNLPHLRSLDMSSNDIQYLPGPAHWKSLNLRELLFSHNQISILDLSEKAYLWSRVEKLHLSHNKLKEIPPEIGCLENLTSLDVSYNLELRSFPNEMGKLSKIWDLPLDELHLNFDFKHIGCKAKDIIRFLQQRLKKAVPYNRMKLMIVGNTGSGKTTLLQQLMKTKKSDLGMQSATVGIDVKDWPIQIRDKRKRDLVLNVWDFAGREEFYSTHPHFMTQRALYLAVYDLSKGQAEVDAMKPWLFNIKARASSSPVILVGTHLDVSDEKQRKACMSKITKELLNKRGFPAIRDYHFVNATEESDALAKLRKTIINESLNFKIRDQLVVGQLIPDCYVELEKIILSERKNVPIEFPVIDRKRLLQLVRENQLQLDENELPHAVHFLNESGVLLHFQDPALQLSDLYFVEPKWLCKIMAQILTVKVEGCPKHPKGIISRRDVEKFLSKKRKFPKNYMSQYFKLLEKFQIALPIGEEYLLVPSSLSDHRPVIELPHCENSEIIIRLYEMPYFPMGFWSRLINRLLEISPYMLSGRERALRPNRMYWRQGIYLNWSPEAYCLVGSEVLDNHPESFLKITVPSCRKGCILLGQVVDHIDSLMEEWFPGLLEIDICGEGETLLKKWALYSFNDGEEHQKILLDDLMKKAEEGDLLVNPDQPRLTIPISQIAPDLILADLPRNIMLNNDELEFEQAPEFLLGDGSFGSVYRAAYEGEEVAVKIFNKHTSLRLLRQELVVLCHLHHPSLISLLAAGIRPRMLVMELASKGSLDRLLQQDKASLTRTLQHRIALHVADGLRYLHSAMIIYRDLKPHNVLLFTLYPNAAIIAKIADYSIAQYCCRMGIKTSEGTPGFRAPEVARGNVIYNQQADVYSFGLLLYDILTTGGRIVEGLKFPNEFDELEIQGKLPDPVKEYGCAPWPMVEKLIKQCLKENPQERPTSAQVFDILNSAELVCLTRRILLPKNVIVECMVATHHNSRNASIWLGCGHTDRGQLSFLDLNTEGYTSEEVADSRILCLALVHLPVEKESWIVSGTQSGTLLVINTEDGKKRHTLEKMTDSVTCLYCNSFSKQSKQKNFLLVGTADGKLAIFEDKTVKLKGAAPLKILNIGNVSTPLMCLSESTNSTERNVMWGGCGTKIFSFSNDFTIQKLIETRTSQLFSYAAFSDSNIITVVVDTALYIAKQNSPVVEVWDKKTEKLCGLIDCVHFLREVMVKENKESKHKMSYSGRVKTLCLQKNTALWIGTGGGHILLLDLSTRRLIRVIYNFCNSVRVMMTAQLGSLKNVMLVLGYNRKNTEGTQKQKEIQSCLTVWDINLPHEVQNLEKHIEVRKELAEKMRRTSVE

One assay concerns the target T1, LRRK2 (Homo sapiens, UniProt Q5S007, G2019S).
T1 construct: purchased Invitrogen PV4882 (lot 567054A)
The experiment in a line: In Vitro LRRK2 Assay (LabChip 3000, fluorescently-labeled peptide substrate, ATP). In kind it is biochemical. As to conditions: Table 9; LRRK2 Ki (micromolar); read-out: LRRK2 Ki (KI). How it is done:
This assay was used to determine a compound's potency in inhibiting activity of LRRK2 by determining, Kiapp, IC50, or percent inhibition values. In a polypropylene plate, LRRK2, fluorescently-labeled peptide substrate, ATP and test compound were incubated together. Using a LabChip 3000 (Caliper Life Sciences), after the reaction the substrate was separated by capillary electrophoresis into two populations: phosphorylated and unphosphorylated. The relative amounts of each were quantitated by fluorescence intensity. LRRK2 Ki was determined according to the equation: Y=V0*(1−(x+Ki*(1+S/Km)+Et)/(2*Et)−(((x+Ki*(1+S/Km)+Et)^2−(4*Et*x))^0.5)/(2*Et))). Ki values in Table 4 and elsewhere herein are shown in μM.
Assay conditions and materials used were as follows:
Compound Plate Preparation:
For serial dilutions, 34.6 μl DMSO was added to columns 3-24.
Total and Blank Preparation:
In Complete Reaction Buffer, substrate was diluted to 4 μM. Equal volumes of Complete Reaction Buffer and 4 μM substrate were combined to obtain the blank. Equal volumes of Complete Reaction Buffer and 4 μM substrate were combined and to the combined solution was added 2× final LRRK2 concentration.
To a 50 μl polypropylene plate, 5 μl/well buffer/substrate was added by hand to Blank wells. A Biomek FX was used to start the kinase reaction (“PLK SAR 23 ATP”). The following were added to the appropriate wells:
5 μl/well compound/ATP in Assay Plate;
5 μl/well kinase/substrate in Assay Plate;
The plate was incubated for 2 hours in the dark. Biomek FX was used to stop the kinase reaction (“PLK Stop”), and 10 μl/well Stop solution was added to the Assay Plate. Results were read on the LabChip 3000.
The LabChip 3000 was run using the job “LRRK2 IC50” with the following job settings: […]
`CNc1nc(Nc2cn(C)nc2C)ncc1C#N` [Example 350, 2-(1,3-Dimethyl-1H-pyrazol-4-ylamino)-4-methylamino-pyrimidine-5-carbonitrile]: the Ki turned out to be 29 nM.

Staying with this assay, now noted: Table 10; LRRK2 Ki (micromolar); read-out: LRRK2 Ki (KI).
For `CNc1nc(Nc2cn(C(C)(C)C#N)nc2C2CC2)ncc1C(F)(F)F` [Example 419, 2-(3-cyclopropyl-4-(4-(methylamino)-5-(trifluoromethyl)pyrimidin-2-ylamino)-1H-pyrazol-1-yl)-2-methylpropanenitrile], the Ki was 1 nM.

Still in this assay, the particulars now being: read-out: LRRK2 Ki (KI), Table 7.
In the case of `COc1nc(Nc2cnn(C(C)(C)C#N)c2C)ncc1Cl` [Example 72, 2-(4-(5-chloro-4-methoxy-pyrimidin-2-ylamino)-5-methyl-1H-pyrazol-1-yl)-2-methylpropane-nitrile], the inhibition constant Ki stood at 16 nM.

Staying with this assay, now noted: read-out: LRRK2 Ki (KI), Table 8.
With `CNc1nc(Nc2cn(C3CCN(CC(F)(F)F)CC3)nc2C)ncc1C(F)(F)F` [Example 92, N4-methyl-N2-(3-methyl-1-(1-(2,2,2-trifluoroethyl)piperidin-4-yl)-1H-pyrazol-4-yl)-5-(trifluoromethyl) pyrimidine-2,4-diamine], the Ki stood at 46 nM.

For `CNc1nc(Nc2cn(-c3ccc(S(=O)(=O)C4CC4)cc3)nc2C)ncc1C(F)(F)F` [Example 161, N2-(1-(4-(cyclopropyl-sulfonyl)phenyl)-3-methyl-1H-pyrazol-4-yl)-N4-methyl-5-(trifluoromethyl) pyrimidine-2,4-diamine], the Ki was found to be 0.3 nM.

With `CCNc1nc(Nc2cnn(C)c2C)ncc1Br` [Example 257, 5-Bromo-N2-(1,5-dimethyl-1H-pyrazol-4-yl)-N4-ethyl-pyrimidine-2,4-diamine], the Ki worked out at 1.5 nM.

On to `CCNc1nc(Nc2cnn(S(=O)(=O)C(C)C)c2C)ncc1C(F)(F)F` [Example 279, N4-Ethyl-N2-[5-methyl-1-(propane-2-sulfonyl)-1H-pyrazol-4-yl]-5-trifluoromethyl-pyrimidine-2,4-diamine], for which the inhibition constant (Ki) stood at 4.7 nM.

For `CNc1nc(Nc2cnn(C3CCN(C(=O)C(C)C)CC3)c2C)ncc1C(F)(F)F` [Example 175, 2-methyl-1-(4-(5-methyl-4-(4-(methylamino)-5-(trifluoromethyl)pyrimidin-2-ylamino)-1H-pyrazol-1-yl)piperidin-1-yl)propan-1-one], the inhibition constant (Ki) turned out to be 6.8 nM.

On to `CCNc1nc(Nc2cnn(C3CCN(CC4OCCO4)C3)c2C)ncc1C(F)(F)F` (centres unmarked) [Example 328, N2-[1-(1-[1,3]Dioxolan-2-ylmethyl-pyrrolidin-3-yl)-5-methyl-1H-pyrazol-4-yl]-N4-ethyl-5-trifluoromethyl-pyrimidine-2,4-diamine], for which the Ki is 0.4 nM.

Turning to `CNc1nc(Nc2cnn(C3CCS(=O)(=O)CC3)c2C)ncc1C(F)(F)F` [Example 196, N4-methyl-N2-(5-methyl-1-(tetrahydro-2H-1,1-dioxo-thiopyran-4-yl)-1H-pyrazol-4-yl)-5-(trifluoromethyl) pyrimidine-2,4-diamine], the inhibition constant (Ki) is 47 nM.

As to `CNc1nc(Nc2cn([C@H](C)COC)nc2C)ncc1C(F)(F)F` [Example 200, (R)-N2-(1-(1-methoxypropan-2-yl)-3-methyl-1H-pyrazol-4-yl)-N4-methyl-5-(trifluoromethyl) pyrimidine-2,4-diamine], the Ki came out at 12.8 nM.

As for `CCNc1nc(Nc2cnn(C3CCN(C(C)=O)CC3)c2C)ncc1C(F)(F)F` [Example 137, 1-(4-(4-(4-(ethylamino)-5-(trifluoromethyl)pyrimidin-2-ylamino)-5-methyl-1H-pyrazol-1-yl)piperidin-1-yl)ethanone], the Ki was 0.4 nM.

With `CCNc1nc(Nc2cn(C(C)(C)C(=O)NC)nc2C)ncc1C(F)(F)F` [Example 303, 2-[4-(4-Ethylamino-5-trifluoromethyl-pyrimidin-2-ylamino)-3-methyl-pyrazol-1-yl]-N-methyl-isobutyramide], the inhibitory constant (Ki) was 1.3 nM.

With `CCNc1nc(Nc2cn(CC(C)(C)O)nc2C(C)(C)C)ncc1C(F)(F)F` [Example 201, 1-(3-tert-butyl-4-(4-(ethylamino)-5-(trifluoromethyl)pyrimidin-2-ylamino)-1H-pyrazol-1-yl)-2-methylpropan-2-ol], the inhibition constant Ki turned out to be 420 nM.

Values taken from US8815882B2, “Pyrazole aminopyrimidine derivatives as LRRK2 modulators” (Genentech, Inc., priority 2010, dated 2014).
